In patent US9895377B2, “Solid forms of tyrosine kinase inhibitors, process for the preparation and their pharmaceutical composition thereof” (LAURUS LABS LIMITED, priority 2012, dated 2018):

Experiment: delta pKa difference between tyrosine kinase inhibitor and anti-oxidative acids
Assay type: physicochemical
Details: between the tyrosine kinase inhibitor and anti-oxidative acids; more than 3 = salt, less than 3 = co-crystal (FDA draft guidelines)

delta pKa difference | Structure (SMILES)
less than 3 | COc1cc2ncnc(Nc3ccc(F)c(Cl)c3)c2cc1OCCCN1CCOCC1 [gefitinib, Gefitinib]
more than 3 | Cc1ccc(NC(=O)c2ccc(CN3CCN(C)CC3)cc2)cc1Nc1nccc(-c2cccnc2)n1 [imatinib, Imatinib]
